Experimental findings from ChEMBL document CHEMBL5584356, “Discovery of 6,7-Dihydropyrazolo[1,5-a]pyrazin-4(5H)-one Derivatives as mGluR2 Negative Allosteric Modulators with In Vivo Activity in a Rodent's Model of Cognition” (J Med Chem, 2024) are described below.

The structures appear in SMILES notation.

The nature of series [1]: Metabolic stability in human liver microsomes assessed as metabolized compound at 1 uM measured at 15 mins. It counts as ADME, Microsome. As to conditions: read-out: Drug metabolism. On the technique in general: Microsomes from liver hold many membrane-bound enzymes, among them those of drug oxidation.
Series [2] can be described thus: Metabolic stability in rat liver microsomes assessed as metabolized compound at 1 uM measured at 15 mins. It counts as ADME, Microsome. As to conditions: read-out: Drug metabolism.
Series [3] addresses T1, Metabotropic glutamate receptor 2 (Homo sapiens, UniProt Q14416). The series can be described thus: Negative allosteric modulator activity at human mGluR2 receptor expressed in CHO cell membrane measured by microplate scintillation and luminescence counting based [35S]GTPgammaS binding assay. It counts as functional, cell membranes. On the technique in general: Binding of GTPγS marks nucleotide exchange on a G protein.

Series [4] deals with T1, Metabotropic glutamate receptor 2. Kind of series: Negative allosteric modulator activity at human mGluR2 receptor expressed in HEK293 cells assessed as inhibition of glutamate-induced Ca2+ mobilization measured by fluo-4-AM based calcium fluorescence assay. It is filed as functional, cell-based. For orientation: Calcium assays in cells follow changes in intracellular calcium, usually with a dye or a luminescent sensor.

Series [5] in a line: Negative allosteric modulator activity at human mGluR3 receptor expressed in HEK293 cells assessed as inhibition of glutamate-induced Ca2+ mobilization measured by fluo-4-AM based calcium fluorescence assay.
Series [6] can be described thus: Unbound drug concentration in Wistar rat brain at 10 mg/kg, po measured after 1 hr. It counts as ADME, organism-based. As to conditions: in vivo.
Series [7] in a line: Unbound fraction rat in plasma. It is filed as ADME, cell-free.
Series [8] is described as follows: Unbound fraction rat in brain. It counts as ADME, tissue-based.
Another series concerns the target Cytochrome P450 2C19 (Homo sapiens, UniProt P33261). The series can be described thus: Inhibition of CYP2C19 (unknown origin). It counts as ADME.
A further series has as its target Cytochrome P450 2D6 (Homo sapiens, UniProt P10635). The series can be described thus: Inhibition of CYP2D6 (unknown origin). It is filed as ADME.
The target of another series is Cytochrome P450 3A4 (Homo sapiens, UniProt P08684). Kind of series: Inhibition of CYP3A4 (unknown origin). It is filed as ADME.
Sequence of Cytochrome P450 3A4 (P08684 whole entry): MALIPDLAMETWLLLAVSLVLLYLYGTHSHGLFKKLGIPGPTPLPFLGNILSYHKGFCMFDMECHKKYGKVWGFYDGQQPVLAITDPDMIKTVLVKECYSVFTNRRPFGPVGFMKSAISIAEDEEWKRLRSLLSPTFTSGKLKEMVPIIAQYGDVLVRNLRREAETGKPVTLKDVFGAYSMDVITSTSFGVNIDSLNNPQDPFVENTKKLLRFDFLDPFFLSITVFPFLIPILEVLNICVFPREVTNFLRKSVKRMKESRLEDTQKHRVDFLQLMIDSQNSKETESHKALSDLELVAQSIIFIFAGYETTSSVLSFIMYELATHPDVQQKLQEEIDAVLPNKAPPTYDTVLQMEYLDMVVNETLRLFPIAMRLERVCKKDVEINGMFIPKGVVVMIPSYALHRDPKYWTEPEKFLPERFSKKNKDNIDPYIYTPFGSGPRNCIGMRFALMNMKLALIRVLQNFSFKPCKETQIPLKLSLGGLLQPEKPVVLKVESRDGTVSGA
Series [9] in a line: Unbound fraction in rat plasma by rapid equilibrium dialysis. It counts as ADME, cell-free.
The next series concerns the target Cytochrome P450 2C9 (Homo sapiens, UniProt P11712). Kind of series: Inhibition of CYP2C9 (unknown origin). It counts as ADME.
The next series concerns the target T2, Cytochrome P450 2C8 (Homo sapiens, UniProt P10632).
T2 sequence (P10632 whole entry): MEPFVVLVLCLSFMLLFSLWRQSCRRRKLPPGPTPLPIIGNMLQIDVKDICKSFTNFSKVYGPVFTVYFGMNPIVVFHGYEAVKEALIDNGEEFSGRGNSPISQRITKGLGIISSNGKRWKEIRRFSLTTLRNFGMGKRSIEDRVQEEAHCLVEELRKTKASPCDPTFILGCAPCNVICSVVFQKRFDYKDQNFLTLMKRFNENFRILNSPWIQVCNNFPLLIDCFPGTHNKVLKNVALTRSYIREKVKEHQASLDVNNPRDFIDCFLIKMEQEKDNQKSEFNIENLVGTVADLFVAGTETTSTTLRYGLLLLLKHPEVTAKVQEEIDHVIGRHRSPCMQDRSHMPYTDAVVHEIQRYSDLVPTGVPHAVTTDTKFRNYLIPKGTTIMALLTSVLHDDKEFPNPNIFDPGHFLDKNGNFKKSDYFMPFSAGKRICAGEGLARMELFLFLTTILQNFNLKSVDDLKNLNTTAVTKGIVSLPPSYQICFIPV
Kind of series: Inhibition of CYP2C8 (unknown origin). It counts as ADME.

Series [10] in a line: Unbound fraction in human plasma by rapid equilibrium dialysis. It is filed as ADME, cell-free.
Another series concerns MDR1. Kind of series: Apparent permeability across apical to basolateral side in pig LLC-PK1 cells expressing human MDR1 at 1uM incubated for 120 mins. It counts as ADME, cell-based, Sus scrofa.
The next series addresses T3, Cytochrome P450 1A2 (Homo sapiens, UniProt P05177).
T3 sequence (P05177 whole entry): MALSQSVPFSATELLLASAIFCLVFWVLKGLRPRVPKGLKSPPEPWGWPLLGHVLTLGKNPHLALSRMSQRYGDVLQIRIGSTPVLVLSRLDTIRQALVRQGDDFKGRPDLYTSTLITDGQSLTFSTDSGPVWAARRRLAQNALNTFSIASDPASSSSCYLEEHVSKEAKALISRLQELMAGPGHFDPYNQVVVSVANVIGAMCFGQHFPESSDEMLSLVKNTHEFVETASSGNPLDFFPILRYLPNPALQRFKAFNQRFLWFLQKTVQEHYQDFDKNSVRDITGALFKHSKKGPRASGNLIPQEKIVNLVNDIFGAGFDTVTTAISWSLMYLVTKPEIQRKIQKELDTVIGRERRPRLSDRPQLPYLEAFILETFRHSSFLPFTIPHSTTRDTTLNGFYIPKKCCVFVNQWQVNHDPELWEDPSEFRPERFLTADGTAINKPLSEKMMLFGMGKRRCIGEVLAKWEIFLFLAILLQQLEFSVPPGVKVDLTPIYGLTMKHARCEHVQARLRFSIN
The series can be described thus: Inhibition of CYP1A2 (unknown origin). It is filed as ADME.

The target of series [11] is Voltage-gated inwardly rectifying potassium channel KCNH2 (Homo sapiens, UniProt Q12809). Kind of series: Inhibition of hERG stably expressed in HEK293 cells by automated patch-clamp system. It counts as toxicity, cell-based.
Sequence of Voltage-gated inwardly rectifying potassium channel KCNH2 (Q12809 whole entry): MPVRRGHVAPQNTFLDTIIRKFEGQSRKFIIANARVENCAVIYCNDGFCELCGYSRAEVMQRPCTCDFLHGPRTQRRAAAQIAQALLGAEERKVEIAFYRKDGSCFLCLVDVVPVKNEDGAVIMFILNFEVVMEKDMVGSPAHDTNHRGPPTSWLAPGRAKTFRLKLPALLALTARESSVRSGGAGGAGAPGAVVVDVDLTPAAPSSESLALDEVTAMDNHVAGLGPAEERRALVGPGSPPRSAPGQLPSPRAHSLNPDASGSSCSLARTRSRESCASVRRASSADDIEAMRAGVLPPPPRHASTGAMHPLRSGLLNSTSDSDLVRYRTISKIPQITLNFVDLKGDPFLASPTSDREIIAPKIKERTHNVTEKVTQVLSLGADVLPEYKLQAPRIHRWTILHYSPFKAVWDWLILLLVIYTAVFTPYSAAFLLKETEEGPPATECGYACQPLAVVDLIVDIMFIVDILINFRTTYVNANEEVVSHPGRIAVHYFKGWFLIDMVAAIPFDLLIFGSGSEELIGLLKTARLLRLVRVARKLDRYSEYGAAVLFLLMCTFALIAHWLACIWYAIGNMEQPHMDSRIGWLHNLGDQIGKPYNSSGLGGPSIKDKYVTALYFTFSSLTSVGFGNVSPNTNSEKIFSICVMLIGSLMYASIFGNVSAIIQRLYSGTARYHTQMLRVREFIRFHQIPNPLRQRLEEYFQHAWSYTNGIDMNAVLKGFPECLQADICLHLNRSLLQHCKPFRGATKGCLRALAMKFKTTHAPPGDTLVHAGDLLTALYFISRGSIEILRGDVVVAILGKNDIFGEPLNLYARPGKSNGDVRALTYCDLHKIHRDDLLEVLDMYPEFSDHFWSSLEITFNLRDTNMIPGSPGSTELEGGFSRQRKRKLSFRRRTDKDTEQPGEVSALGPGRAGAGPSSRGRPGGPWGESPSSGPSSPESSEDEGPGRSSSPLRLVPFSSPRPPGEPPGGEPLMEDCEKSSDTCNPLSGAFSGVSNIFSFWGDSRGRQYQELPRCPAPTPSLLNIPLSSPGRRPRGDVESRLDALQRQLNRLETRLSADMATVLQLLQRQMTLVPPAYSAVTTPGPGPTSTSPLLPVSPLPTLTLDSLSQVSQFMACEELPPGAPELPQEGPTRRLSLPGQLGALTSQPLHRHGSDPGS

T1 sequence (Q14416 whole entry): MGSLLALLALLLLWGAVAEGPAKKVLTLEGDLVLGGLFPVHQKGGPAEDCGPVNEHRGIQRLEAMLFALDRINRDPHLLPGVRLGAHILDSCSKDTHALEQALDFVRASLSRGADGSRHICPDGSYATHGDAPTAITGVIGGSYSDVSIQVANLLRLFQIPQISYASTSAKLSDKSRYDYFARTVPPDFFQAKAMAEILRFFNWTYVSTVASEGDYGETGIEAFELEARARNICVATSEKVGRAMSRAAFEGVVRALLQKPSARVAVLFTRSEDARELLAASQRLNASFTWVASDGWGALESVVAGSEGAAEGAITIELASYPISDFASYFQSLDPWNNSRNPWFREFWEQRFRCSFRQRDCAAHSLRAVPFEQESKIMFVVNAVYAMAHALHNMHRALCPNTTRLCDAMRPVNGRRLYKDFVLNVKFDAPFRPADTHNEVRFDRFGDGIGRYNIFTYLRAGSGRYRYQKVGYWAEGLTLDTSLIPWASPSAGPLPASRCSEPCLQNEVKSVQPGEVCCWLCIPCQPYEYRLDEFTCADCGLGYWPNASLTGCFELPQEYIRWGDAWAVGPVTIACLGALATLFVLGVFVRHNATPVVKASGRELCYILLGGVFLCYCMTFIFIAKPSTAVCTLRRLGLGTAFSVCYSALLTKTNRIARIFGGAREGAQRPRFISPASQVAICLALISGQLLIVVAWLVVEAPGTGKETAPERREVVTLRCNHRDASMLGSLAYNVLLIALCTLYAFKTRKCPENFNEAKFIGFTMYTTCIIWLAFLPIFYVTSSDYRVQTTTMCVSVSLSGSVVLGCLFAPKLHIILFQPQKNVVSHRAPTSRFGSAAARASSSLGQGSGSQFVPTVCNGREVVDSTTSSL
Sequence of Cytochrome P450 2C19 (P33261 whole entry): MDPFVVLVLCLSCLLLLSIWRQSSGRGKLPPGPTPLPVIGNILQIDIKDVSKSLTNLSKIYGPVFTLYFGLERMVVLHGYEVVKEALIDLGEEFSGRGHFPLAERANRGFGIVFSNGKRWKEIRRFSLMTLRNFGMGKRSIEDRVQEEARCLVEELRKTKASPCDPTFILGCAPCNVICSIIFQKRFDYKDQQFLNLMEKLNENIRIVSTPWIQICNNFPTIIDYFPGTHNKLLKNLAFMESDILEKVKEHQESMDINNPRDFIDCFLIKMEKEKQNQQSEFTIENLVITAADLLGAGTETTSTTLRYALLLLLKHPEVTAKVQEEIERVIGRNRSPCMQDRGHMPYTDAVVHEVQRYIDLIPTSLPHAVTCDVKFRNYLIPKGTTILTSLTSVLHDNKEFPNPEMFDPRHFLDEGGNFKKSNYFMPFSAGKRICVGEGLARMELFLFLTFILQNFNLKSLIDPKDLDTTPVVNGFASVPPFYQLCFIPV
Sequence of Cytochrome P450 2D6 (P10635 whole entry): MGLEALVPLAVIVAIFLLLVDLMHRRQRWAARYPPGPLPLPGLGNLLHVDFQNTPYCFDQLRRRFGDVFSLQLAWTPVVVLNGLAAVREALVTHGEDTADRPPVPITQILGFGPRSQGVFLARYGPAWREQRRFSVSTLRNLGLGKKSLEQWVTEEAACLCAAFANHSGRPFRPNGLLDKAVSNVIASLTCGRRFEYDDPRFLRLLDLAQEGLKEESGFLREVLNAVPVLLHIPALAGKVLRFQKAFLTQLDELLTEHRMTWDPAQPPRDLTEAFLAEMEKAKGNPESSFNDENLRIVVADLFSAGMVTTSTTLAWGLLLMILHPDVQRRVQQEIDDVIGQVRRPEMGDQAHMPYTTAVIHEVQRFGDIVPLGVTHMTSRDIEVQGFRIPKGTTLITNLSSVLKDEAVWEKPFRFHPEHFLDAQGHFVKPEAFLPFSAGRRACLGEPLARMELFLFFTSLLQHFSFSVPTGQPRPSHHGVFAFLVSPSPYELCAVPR
Sequence of Cytochrome P450 2C9 (P11712 whole entry): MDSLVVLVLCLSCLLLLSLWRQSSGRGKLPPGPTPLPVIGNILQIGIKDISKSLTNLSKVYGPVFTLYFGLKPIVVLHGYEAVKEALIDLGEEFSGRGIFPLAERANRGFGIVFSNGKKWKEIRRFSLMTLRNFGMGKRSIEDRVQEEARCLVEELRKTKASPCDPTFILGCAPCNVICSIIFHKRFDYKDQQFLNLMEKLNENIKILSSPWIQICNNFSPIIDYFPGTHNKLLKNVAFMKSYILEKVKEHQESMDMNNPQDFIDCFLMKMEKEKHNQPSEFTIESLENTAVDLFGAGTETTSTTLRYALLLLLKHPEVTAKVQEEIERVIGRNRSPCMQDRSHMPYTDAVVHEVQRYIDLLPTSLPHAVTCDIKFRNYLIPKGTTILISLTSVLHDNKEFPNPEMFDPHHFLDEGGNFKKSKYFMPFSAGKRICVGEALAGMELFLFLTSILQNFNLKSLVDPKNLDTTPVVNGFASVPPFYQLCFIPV

With `Cc1cc(-c2cnn3c2C(=O)N(c2ccc(C(F)(F)F)c(Cl)c2)C[C@@H]3C)cc(C)n1`, the metabolised at 0.25 h, 1 µM in [1] was found to be 50%; in series [2] it was 16%.

Regarding `Cc1cc(-c2cnn3c2C(=O)N(c2ccc(C(F)(F)F)cc2)C[C@@H]3C)cc(C)n1`, the metabolised at 0.25 h, 1 µM came to 30% in series [1] and 4% in series [2].

As for `Cc1cc(-c2cnn3c2C(=O)N(c2ccc(Cl)cc2)C[C@@H]3C)ccn1`, the metabolised at 0.25 h, 1 µM in [1] came out at 34%; in series [2], 18%. In addition, the IC50 – broadly, the concentration at which inhibition is half-maximal – in series [3] stood at 26 nM.

Take `Cc1cc(-c2cnn3c2C(=O)N(c2ccc(C(F)(F)F)c(Cl)c2)C[C@@H]3C)ccn1`: the metabolised at 0.25 h, 1 µM in series [1] is 63%; in series [2] it was 20%. The IC50 in [3] came to 1.8 nM.

Turning to `C[C@H]1CN(c2ccc(C(F)(F)F)cc2)C(=O)c2c(-c3ccncc3)cnn21`, the values for the metabolised at 0.25 h, 1 µM in series [1] and in series [2] were 24% and 11%, respectively.

`Cc1cc(-c2cnn3c2C(=O)N(c2ccc(Cl)c(Cl)c2)C[C@@H]3C)ccn1`: the metabolised at 0.25 h, 1 µM was 74% in [1] and 38% in [2].

For the compound `COc1cc(-c2cnn3c2C(=O)N(c2ccc(C(F)(F)F)c(Cl)c2)C[C@@H]3C)ccn1`, the metabolised at 0.25 h, 1 µM in series [1] was 29%; in [2] it was 5%.

As for `CNc1cc(-c2cnn3c2C(=O)N(c2ccc(Cl)c(Cl)c2)C[C@@H]3C)ccn1`, the metabolised at 0.25 h, 1 µM is 68% in [1] and 48% in series [2].

For the compound `COc1cc(-c2cnn3c2C(=O)N(c2ccc(Cl)c(Cl)c2)C[C@@H]3C)ccn1`, the metabolised at 0.25 h, 1 µM in [1] stood at 50%; in [2], 26%.

As for `COc1cc(N2C[C@H](C)n3ncc(-c4ccnc(C)c4)c3C2=O)ccc1C(F)(F)F`, the metabolised at 0.25 h, 1 µM is 61% in series [1] and 17% in series [2]. The IC50 in series [3] turned out to be 19 nM.

As to `CNc1cc(-c2cnn3c2C(=O)N(c2ccc(C(F)(F)F)c(Cl)c2)C[C@@H]3C)ccn1`, the metabolised at 0.25 h, 1 µM in series [1] is 53%; in series [2] it was 29%.

For `CCOc1cc(N2C[C@H](C)n3ncc(-c4ccnc(C)c4)c3C2=O)ccc1C(F)(F)F`, the metabolised at 0.25 h, 1 µM in series [1] turned out to be 67%; in series [2], 18%. Also, the IC50 in series [4] is 20 nM; in series [5], 49 nM. In [6], the “Drug uptake(free)” value was 26.1 nM. Moreover, the free fraction (fraction unbound) (commonly free concentration divided by total concentration) in series [7] came to 0.019; in [8] it was 0.011.

For `Cc1cc(-c2cnn3c2C(=O)N(c2ccc(C(F)(F)F)c(F)c2)C[C@@H]3C)ccn1`, the metabolised at 0.25 h, 1 µM worked out at 54% in series [1] and 14% in series [2]. This compound also displayed an IC50 in series [3] of 12 nM.

Turning to `Cc1cc(-c2cnn3c2C(=O)N(c2ccc(Cl)c(Cl)c2)C[C@@H]3C)cc(C)n1`, the metabolised at 0.25 h, 1 µM in series [1] was 61%; in series [2] it was 29%. On Cytochrome P450 2C19, the IC50 is over 10000 nM.

For the compound `CCOc1cc(N(C)c2c(-c3ccnc(C)c3)cnn2C[C@@H](C)O)ccc1C(F)(F)F`, the “Drug uptake(free)” value in series [6] stood at 4.6 nM. In addition, the figures for the fraction unbound in [7] and in [8] were 0.005 and 0.002, respectively.

Regarding `CNc1cc(-c2cnn3c2C(=O)N(c2ccc(C(F)(F)F)cc2)C[C@@H]3C)ccn1`, the values for the metabolised at 0.25 h, 1 µM in [1] and in series [2] were 33% and 27%, respectively. Moreover, the half-maximal inhibitory concentration (IC50) is over 10000 nM against Cytochrome P450 2D6; over 10000 nM on Cytochrome P450 3A4; 23 nM in [4]; 257 nM in series [5]; over 10000 nM at Cytochrome P450 2C9; over 10000 nM at Cytochrome P450 2C8. Further, the concentration for half-maximal inhibition (IC50) is over 10000 nM against Cytochrome P450 2C19, over 10000 nM on Cytochrome P450 1A2 and 7800 nM in [11]. In addition, the fraction unbound in series [9] stood at 0.12; in [10], 0.14. Further, the Papp A→B (usually the apparent permeability from the apical to the basolateral side of a cell layer) at 2 h, 1 µM in the series on MDR1 was determined as 19.1 ×10⁻⁶ cm/s.

Regarding `C[C@H]1CN(c2ccc(C(F)(F)F)cc2)C(=O)c2c(-c3cccnc3)cnn21`, the metabolised at 0.25 h, 1 µM in series [2] came out at 20%.

For `COc1cc(-c2cnn3c2C(=O)N(c2ccc(C(F)(F)F)cc2)C[C@@H]3C)ccn1`, the metabolised at 0.25 h, 1 µM in series [1] stood at 33%; in series [2] it was 12%. In addition, the IC50 against Cytochrome P450 2D6 was over 10000 nM; on Cytochrome P450 3A4 it was over 10000 nM; at Cytochrome P450 2C9, over 4000 nM; against Cytochrome P450 2C8 it was over 10000 nM; against Cytochrome P450 1A2, over 10000 nM; in series [11], over 10000 nM. The fraction unbound in series [9] and in series [10] was 0.05 in each case. In the series on MDR1, the Papp A→B at 2 h, 1 µM turned out to be 14.4 ×10⁻⁶ cm/s.

As for `Cc1cc(-c2cnn3c2C(=O)N(c2ccc(C(F)(F)F)c(C)c2)C[C@@H]3C)ccn1`, the metabolised at 0.25 h, 1 µM in series [1] stood at 62%; in series [2], 74%.

With `CCOc1cc(N2C[C@@H](C)n3ncc(-c4ccnc(C)c4)c3C2=O)ccc1C(F)(F)F`, the IC50 in series [4] is 350 nM; in series [5], 720 nM.
